From article PMC3104272 (Journal of medicinal chemistry, 2011)
Values after ≈ are worked out from the molar mass of the structure shown. Where two headings read alike, the source gives them in different places.

Key:
Solubility estimates = assay type: physicochemical; details: for Solubility pH 2.0: 0.01M HCl (approximately pH 2.0)
Falcipain 2 = target: T1, Falcipain 2 (Plasmodium falciparum, UniProt Q8I6U4); experiment: Falcipain 2 inhibition assay; assay type: biochemical; details: averages of duplicate determinations
T1 sequence (Q8I6U4 244-484): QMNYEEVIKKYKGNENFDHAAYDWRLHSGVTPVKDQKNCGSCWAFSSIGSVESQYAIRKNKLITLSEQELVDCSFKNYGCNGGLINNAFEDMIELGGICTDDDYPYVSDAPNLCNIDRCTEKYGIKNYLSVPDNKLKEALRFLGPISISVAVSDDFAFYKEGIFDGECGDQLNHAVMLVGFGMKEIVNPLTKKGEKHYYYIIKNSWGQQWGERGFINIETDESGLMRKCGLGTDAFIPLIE

[1] = test system: Chinese Hamster Ovarian (mammalian) cell line; details: previously reported finding; cited from earlier work
[2] = NADPH and UDPGA relative to NADPH alone; putative P + 176 metabolite
[3] = In vitro metabolic stability, human liver microsomes; assay type: in vitro ADME; details: calculated hepatic extraction ratio
[4] = In vitro metabolic stability, mouse liver microsomes; assay type: in vitro ADME; details: calculated hepatic extraction ratio
[5] = test system: P. falciparum chloroquine sensitive strain D10; experiment: In vitro antiplasmodial activity, D10 strain; assay type: cell-based; details: Plasmodium falciparum, D10, read-out: IC50, D10
[6] = test system: P. falciparum chloroquine resistant strain Dd2; experiment: In vitro antiplasmodial activity, Dd2 strain; assay type: cell-based; details: Plasmodium falciparum, DD2, read-out: IC50, Dd2
[7] = test system: P. falciparum chloroquine resistant strain W2; experiment: In vitro antiplasmodial activity, W2 strain; assay type: cell-based; details: Plasmodium falciparum, W2, read-out: IC50, W2
[8] = test system: Chinese Hamster Ovarian (mammalian) cell line; experiment: Cytotoxicity against Chinese Hamster Ovarian cell line; assay type: cell-based; details: highest concentration (100 µM) tested

Structure (SMILES)	Falcipain 2 (IC50) (Falcipain 2)	Microsome-Predicted Extraction ratio (EH), Human [3]	Microsome-Predicted Extraction ratio (EH), Mouse [4]	solubility (Solubility estimates; phosphate buffer, pH 6.5) [µg/mL]	Primary glucuronidation [2]	also measured
COc1ccc(C(=O)/C=C/c2ccc(OCc3cn(-c4ccnc5cc(Cl)ccc45)nn3)c(OC)c2)c(OC)c1 [Compound 8b]	lower micromolar IC50 values	–	–	–	no major increase in the rate of degradation	Solubility pH 2.0 (Solubility estimates; 1% DMSO): no increase in solubility under acidic conditions; Cytotoxicity [1]: No cytotoxicity was observed
COc1ccc(C(=O)/C=C/c2ccc(OCCNc3ccnc4cc(Cl)ccc34)c(OC)c2)c(OC)c1 [Compound 21, 3-{4-[2-(7-Chloro-quinolin-4-ylamino)-ethoxy]-3-methoxy-phenyl}-1-(2,4-dimethoxy-phenyl)-propenone]	lower micromolar IC50 values	0.85	0.86	3.1 to 6.3 (≈ 5.97 to 12.1 µM)	no major increase in the rate of degradation	–
CCN(CC)CCCC(C)Nc1ccnc2cc(Cl)ccc12 (stereo not drawn) [Chloroquine]	–	–	–	–	no major increase in the rate of degradation	IC50 [5]: 0.017 µM; IC50 [6]: 0.097 µM; IC50 [7]: 0.069 µM
COc1cc(/C=C/C(C)=O)ccc1OCc1cn(-c2ccnc3cc(Cl)ccc23)nn1 [Compound 12]	–	–	–	3.1 to 6.3 (≈ 7.13 to 14.5 µM)	no putative metabolites detected with molecular weights consistent with glucuronidation	Solubility pH 2.0 (Solubility estimates; 1% DMSO): no increase in solubility under acidic conditions; solubility (Solubility estimates; 0.01M HCl, pH 2): 3.1 to 6.3 µg/mL (≈ 7.13 to 14.5 µM)
COc1cc(/C=C/C(C)=O)ccc1OCCN1CCN(c2ccnc3cc(Cl)ccc23)CC1 [Compound 22, 4-(4-{2-[4-(7-Chloro-quinolin-4-yl)-piperazin-1-yl]-ethoxy}-3-methoxy-phenyl)-but-3-en-2-one]	relatively low potencies	–	–	1.6 to 3.1 (≈ 3.43 to 6.65 µM)	no putative metabolites detected with molecular weights consistent with glucuronidation	–
COc1ccc(C(=O)/C=C/c2ccc(OCCN3CCN(c4ccnc5cc(Cl)ccc45)CC3)c(OC)c2)c(OC)c1 [Compound 23, 3-(4-{2-[4-(7-Chloro-quinolin-4-yl)-piperazin-1-yl]-ethoxy}-3-methoxy-phenyl)-1-(2,4-dimethoxy-phenyl)-propenone]	lower micromolar IC50 values	–	–	–	no major increase in the rate of degradation	–
COc1cc(/C=C/C(C)=O)ccc1OCCNc1ccnc2cc(Cl)ccc12 [Compound 20, 4-{4-[2-(7-Chloro-quinolin-4-ylamino)-ethoxy]-3-methoxy-phenyl}-but-3-en-2-one]	relatively low potencies	0.90	0.85	6.3 to 12.5 (≈ 15.9 to 31.5 µM)	no major increase in the rate of degradation	solubility (Solubility estimates; 0.01M HCl, pH 2): 50 to 100 µg/mL (≈ 126 to 252 µM); Solubility pH 6.5 (Solubility estimates; pH 6.5 phosphate buffer, 1% DMSO): moderate solubility

Second part, led by results:

Falcipain 2 (IC50) (Falcipain 2)	Microsome-Predicted Extraction ratio (EH), Human [3]	Microsome-Predicted Extraction ratio (EH), Mouse [4]	solubility (Solubility estimates; phosphate buffer, pH 6.5) [µg/mL]	Structure (SMILES)	Primary glucuronidation [2]	also measured
lower micromolar IC50 values	0.93	0.84	–	CC(=O)/C=C/c1ccc(O)c(CN2CCN(c3ccnc4cc(Cl)ccc34)CC2)c1 [Compound 26, 4-{3-[4-(7-Chloro-quinolin-4-yl)-piperazin-1-ylmethyl]-4-hydroxy-phenyl}-but-3-en-2-one]	–	–
relatively low potencies	0.85	0.84	1.6 to 3.1 (≈ 3.54 to 6.86 µM)	COc1cc(/C=C/C(C)=O)cc(CN2CCN(c3ccnc4cc(Cl)ccc34)CC2)c1O [Compound 24, 4-{3-[4-(7-Chloro-quinolin-4-yl)-piperazin-1-ylmethyl]-4-hydroxy-5-methoxyphenyl}-but-3-en-2-one]	–	–
lower micromolar IC50 values	–	–	–	COc1ccc(C(=O)/C=C/c2ccc(O)c(CN3CCN(c4ccnc5cc(Cl)ccc45)CC3)c2)c(OC)c1 [Compound 27, 3-{3-[4-(7-Chloro-quinolin-4-yl)-piperazin-1-ylmethyl]-4-hydroxy-phenyl}-1-(2,4-dimethoxy-phenyl)-propenone]	–	Cytotoxicity [8]: No cytotoxicity was observed
lower micromolar IC50 values	0.72	0.87	–	COc1ccc(C(=O)/C=C/c2cc(CN3CCN(c4ccnc5cc(Cl)ccc45)CC3)c(O)c(OC)c2)c(OC)c1 [Compound 25, 3-{3-[4-(7-Chloro-quinolin-4-yl)-piperazin-1-ylmethyl]-4-hydroxy-5-methoxyphenyl}-1-(2,4-dimethoxy-phenyl)-propenone]	–	Cytotoxicity [8]: No cytotoxicity was observed
